Experimental data reported in patent publication US11879145B2, “Reagents and methods for replication, transcription, and translation in semi-synthetic organisms” (The Scripps Research Institute, priority 2019, dated 2024).

Legend:
[1] = system: sfGFP^151(AXC); assay: In vivo translation screen of XTPs/YTPs: protein shift (AzK incorporation) by DBCO-TAMRA western blot; format: cell-based, E. coli; conditions: TPT3TP 30 μM, dCNMO-dTPT3 UBP, strain ML2
Experimental: (§1) In vivo Translation Screen of XTPs/YTPs. An overnight culture of the SSO strain ML2 carrying the pGEX-MbPylRS TetR plasmid was grown in 2×YT supplemented with 50 mM potassium phosphate, […] chloramphenicol and 100 μg/mL carbenicillin (herein referred to in this section as “media”), then diluted back to an OD600 of 0.03 in the same media and grown to an OD600 of 0.4 to 0.6. The culture was then chilled with shaking over ice-water for 15 minutes then pelleted by centrifugation at 3,200×g for 10 min. Cells were then resuspended and washed with ice-cold ddH2O twice then resuspended in ice-cold ddH2O to OD600 of 55-65. The electrocompetent cells (50 μL) and 1 ng of Golden Gate assembled plasmid with the UBP within the sfGFP and tRNAPyl genes (see Golden Gate Assembly of Plasmids) were transferred to a pre-chilled electroporation cuvette (0.2-cm-gap), then electroporated (Gene Pulser II; Bio-Rad) according to manufacturer's recommendations (voltage […], capacitor 2.5 μF, resistor 200Ω), and then immediately diluted with 950 μL of media. An aliquot (40 μL) of the transformation was then diluted five-fold in media supplemented with dCNMOTP (25 μM) and dTPT3TP (10 μM) for a final volume of 200 μL then allowed to recover for 1 h shaking at 37° C. Two-fold dilutions of the recovery were plated onto solid media supplemented with zeocin (50 μg/mL), dCNMOTP (10 μM), dTPT3TP (10 μM), and agar (2% w/v), then grown at 37° C. for 18 h. Single colonies were picked and grown in media (300 μL) supplemented with 50 μg/mL zeocin and provided dCNMOTP (25 μM) and dTPT3TP (10 μM) (herein afterward referred to in this section as “growth media”). The culture was monitored for cell growth (Envision 2103 Multilabel Plate Reader with a 590/20 nm filter) and then collected at an OD600˜1.0. An aliquot (50 μL) was subjected to plasmid isolation using the ZR Plasmid Prep Kit (Zymo Research). Isolated plasmids were then subjected to the streptavidin gel shift assay described below (using primers P3-4 and P5-6, Table S1) to determine UBP retention.
(§2) A colony with excellent UBP retention was then diluted to an OD600˜0.01 in growth media and grown to OD600˜0.4-0.6. This culture was then divided into multiple 300 μL cultures and for the screen of XTP analogs, each was provided with the corresponding XTP (at either 25 μM or 250 μM) or ddH2O for “−XTP” samples, TPT3TP (30 μM), and AzK (10 mM). For the screen of YTP analogs, each 300 μL culture was provided with the corresponding YTP (at either 25 μM or 250 μM) or ddH2O for “−YTP” samples, NaMTP (250 μM), and AzK (10 mM). Samples were shielded from light after addition of AzK to prevent photodegradation. These samples were then grown at 37° C. for 20 min before adding 1 mM IPTG and grown at 37° C. for an additional 1 h to induce T7 RNAP and transcription of tRNAPyl and PylRS. From this point on, cells were monitored for growth and fluorescence. Expression of sfGFP was then induced with anhydrotetracycline (100 ng/mL). After an additional 3 h of growth at 37° C., cells were collected (230 μL for affinity purification of sfGFP), cooled, and then pelleted and stored at −80° C. before protein purification.
Affinity Purification of sfGFP. Cell pellets collected from translation experiments were resuspended in BugBuster (100 μL 1×, EMD Millipore) and shaken at room temperature for 15 min. […]

[2] = system: sfGFP^151(AXC); assay: In vivo translation screen of XTPs/YTPs: total sfGFP fluorescence; format: cell-based, E. coli
Experimental: as §1, §2
An SAR analysis was initiated with NaMTP and the nine XTP analogs. Based on performance in the dXTP screen described above, and to eliminate variable loss at the DNA level as a complicating factor, the unnatural information was encoded with the dCNMO-dTPT3 UBP. Additionally, the E. coli strain ML2, which expresses the nucleoside triphosphate transporter PtNTT2, but has also been genetically engineered for higher fidelity replication of the UBP by deletion of the gene encoding RecA (as is common in cloning strains) and overexpression of DNA Pol II was used. The same plasmid described above in Examples 1A and 1, harboring sfGFP^151(AXC) and tRNA^Pyl(GYT), was used, and to focus the screen to a single unnatural ribonucleotide, the M. mazei Pyl tRNA was transcribed in the presence of 30 μM TPT3TP. […]

## COc1cc(C)c(F)cc1[C@@H]1O[C@H](COP(=O)(O)OP(=O)(O)OP(=O)(O)O)[C@@H](O)[C@H]1O [Compound 5FMTP]
[1]; XTP 25 μM
  sfGFP protein gel shift (ncAA incorporation): 94%
[1]; XTP 250 μM
  sfGFP protein gel shift (ncAA incorporation): 98%
[2]; XTP 25 μM
  More fluorescence than MMO2TP: 34%
[2]; XTP 250 μM
  Bulk fluorescence compared to cells grown with NaMTP at the same concentration: 90%
